Data from patent publication US3981999A, “Fish disease treatment” (Dainippon Pharmaceutical Co., Ltd., priority 1973, dated 1976).
≈ marks a conversion by molar mass, not a printed value.

Legend:
[1] = system: Pseudomonas anguilliseptica T-2; assay: MIC by broth serial dilution; type: cell-based; details: T2, bouillon pH 7.2, 20°C, 7 hours, read-out: MIC
Method: (§1) The MIC (minimum inhibitory concentration) of a test compound was determined by the serial dilution method on various pathogenic microorganisms incubated under the following experimental conditions. The lowest concentration at which the visible growth of the organism was inhibited was considered as MIC. […]
(§2) the broth-dilution method bouillon, pH 7.2, except for Vibrio (3% NaCl-bouillon, pH 7.2), Pasteurella (2% NaCl-Brain Heart Infusion, pH 7.3 and Chondrococcus (TY medium, pH 7.3) 1 drop of a bacterial suspension per test tube (100 - 1000 minimal growing units in the medium) 25°C, except for Pseud. anguilliseptica (20°C)
(§3) 48 hours, except for Pseudo. anguilliseptica ([…])

[2] = system: Chondrococcus sp K-2; assay: MIC by broth serial dilution; type: cell-based; details: TY medium pH 7.3, 25°C, 48 hours; read-out: MIC
Method: as §1, §2, §3

[3] = system: Aeromonas liquefaciens Y-62; assay: MIC by broth serial dilution; type: cell-based; details: Aeromonas hydrophila, Y62; bouillon pH 7.2, 25°C, 48 hours; read-out: MIC
Method: as §1, §2, §3

[4] = system: Aeromonas salmonicida Kusuda; assay: MIC by broth serial dilution; type: cell-based; details: bouillon pH 7.2, 25°C, 48 hours, read-out: MIC
Method: as §1, §2, §3

[5] = system: Pseudomonas anguilliseptica S-1; assay: MIC by broth serial dilution; type: cell-based; details: S1, bouillon pH 7.2, 20°C, 7 hours, read-out: MIC
Method: as §1, §2, §3

[6] = system: Vibrio anguillarum K-3; assay: MIC by broth serial dilution; type: cell-based; details: K3, 3% NaCl-bouillon pH 7.2, 25°C, 48 hours, read-out: MIC
Method: as §1, §2, §3

[7] = system: Chondrococcus sp K-1; assay: MIC by broth serial dilution; type: cell-based; details: TY medium pH 7.3, 25°C, 48 hours; read-out: MIC
Method: as §1, §2, §3

[8] = system: Vibrio anguillarum Km-30; assay: MIC by broth serial dilution; type: cell-based; details: KM30, 3% NaCl-bouillon pH 7.2, 25°C, 48 hours, read-out: MIC
Method: as §1, §2, §3

[9] = system: Vibrio anguillarum A-8; assay: MIC by broth serial dilution; type: cell-based; details: A8, 3% NaCl-bouillon pH 7.2, 25°C, 48 hours, read-out: MIC
Method: as §1, §2, §3

[10] = system: Aeromonas salmonicida Hara-1; assay: MIC by broth serial dilution; type: cell-based; details: HARA1, bouillon pH 7.2, 25°C, 48 hours, read-out: MIC
Method: as §1, §2, §3

[11] = system: Aeromonas salmonicida Kawazu; assay: MIC by broth serial dilution; type: cell-based; details: bouillon pH 7.2, 25°C, 48 hours, read-out: MIC
Method: as §1, §2, §3

[12] = system: Pasteurella piscicida K-1; assay: MIC by broth serial dilution; type: cell-based; details: Photobacterium damselae, K1; 2% NaCl-Brain Heart Infusion pH 7.3, 25°C, 48 hours; read-out: MIC
Method: as §1, §2, §3

[13] = system: Pasteurella piscicida Al-3; assay: MIC by broth serial dilution; type: cell-based; details: Photobacterium damselae, AL3; 2% NaCl-Brain Heart Infusion pH 7.3, 25°C, 48 hours; read-out: MIC
Method: as §1, §2, §3

[14] = system: Aeromonas salmonicida Hara-2; assay: MIC by broth serial dilution; type: cell-based; details: HARA2, bouillon pH 7.2, 25°C, 48 hours, read-out: MIC
Method: as §1, §2, §3

[15] = system: goldfish; assay: Oral toxicity in goldfish; type: in vivo; details: 10% in diet (PA 800, AT-1493 955, AT-1557 935, AT-1475 923 mg/kg); for Mortality: 7 days; for Number of the survival after 1 day from administration / Number of the survival after 2 days from administration / Number of the survival after 3 days from administration / Number of the survival after 4 days from administration / Number of the survival after 5 days from administration / Number of the survival after 6 days from administration / Number of the survival after 7 days from administration: day 0: 5 fish
Method: A diet containing 10% of each of the test compounds was given orally to groups each consisting of 5 goldfish each weighing 6 to 10 g, and observation was made for the following 7 days. The temperature of the water was maintained at 28°C.

[16] = system: Aeromonas liquefacieus Y-62; assay: Oral effect against Aeromonas infection in goldfish; type: in vivo; details: for Percent survival: 5 days
Method: Goldfish each weighing about 6 - 7 g were given a fish food containing each of the test compounds. After 30 minutes, the fish were infected intramuscularly with Aeromonas liquefacieus Y-62 (about 10^7 germs/fish) under ether anesthesia. […] In the same manner, the control group was given the same fish food without the test compound.

[17] = 0.1% in diet (PA 6.1, AT-1493 7.5, AT-1557 7.6, AT-1475 7.5 mg/kg)
[18] = 0.1% in diet (PA 6.1, AT-1493 7.5, AT-1557 7.6, AT-1475 7.5 mg/kg), day 0: PA 10, others 5 fish
[19] = 0.3% in diet, 22.3 mg/kg, day 0: 5 fish
[20] = 0.03% in diet (PA 2.5, AT-1493 2.5, AT-1557 2.2 mg/kg), day 0: PA 10, others 5 fish

Compound	MIC [1]	MIC [2]	MIC [3]	MIC [4]	MIC [5]	MIC [6]	MIC [7]	MIC [8]	MIC [9]	MIC [10]	MIC [11]	MIC [12]	MIC [13]	MIC [14]	Mortality [15]	Number of the survival after 1 day from administration [15]	Number of the survival after 2 days from administration [15]	Number of the survival after 3 days from administration [15]	Number of the survival after 4 days from administration [15]	Number of the survival after 5 days from administration [15]	other results
C=Cn1cc(C(=O)O)c(=O)c2ccc(N3CCNCC3)nc21 [AT-1475, 1,4-Dihydro-7-(1-piperazinyl)-4-oxo-1-vinyl-1,8-naphthyridine-3-carboxylicacid]	0.1 µg/mL (≈ 0.333 µM)	1 µg/mL (≈ 3.33 µM)	0.3 µg/mL (≈ 0.999 µM)	0.3 µg/mL (≈ 0.999 µM)	0.1 µg/mL (≈ 0.333 µM)	3 µg/mL (≈ 9.99 µM)	1 µg/mL (≈ 3.33 µM)	10 µg/mL (≈ 33.3 µM)	10 µg/mL (≈ 33.3 µM)	0.3 µg/mL (≈ 0.999 µM)	0.3 µg/mL (≈ 0.999 µM)	1 µg/mL (≈ 3.33 µM)	1 µg/mL (≈ 3.33 µM)	1 µg/mL (≈ 3.33 µM)	0%	5	5	5	5	5	Number of the survival after 6 days from administration [15]: 5; Number of the survival after 7 days from administration [15]: 5; Percent survival [16, 17]: 60%; Number of surviving fish after 1 day [16, 18]: 5; Number of surviving fish after 2 days [16, 18]: 4; Number of surviving fish after 3 days [16, 18]: 4; Number of surviving fish after 4 days [16, 18]: 3; Number of surviving fish after 5 days [16, 18]: 3; Percent survival ([16]; 0.3% in diet, 22.3 mg/kg): 100%; Number of surviving fish after 1 day [16, 19]: 5; Number of surviving fish after 2 days [16, 19]: 5; Number of surviving fish after 3 days [16, 19]: 5; Number of surviving fish after 4 days [16, 19]: 5; Number of surviving fish after 5 days [16, 19]: 5
C=Cn1cc(C(=O)O)c(=O)c2ccc(N3CCN(C)CC3)cc21 [AT-1493, 1,4-Dihydro-7-(4-methyl-1-piperazinyl)-4-oxo-1-vinylquinoline-3-carboxylicacid]	0.1 µg/mL (≈ 0.319 µM)	3 µg/mL (≈ 9.57 µM)	0.1 µg/mL (≈ 0.319 µM)	0.1 µg/mL (≈ 0.319 µM)	0.1 µg/mL (≈ 0.319 µM)	3 µg/mL (≈ 9.57 µM)	3 µg/mL (≈ 9.57 µM)	3 µg/mL (≈ 9.57 µM)	3 µg/mL (≈ 9.57 µM)	0.1 µg/mL (≈ 0.319 µM)	0.1 µg/mL (≈ 0.319 µM)	0.3 µg/mL (≈ 0.957 µM)	1 µg/mL (≈ 3.19 µM)	0.1 µg/mL (≈ 0.319 µM)	0%	5	5	5	5	5	Number of the survival after 6 days from administration [15]: 5; Number of the survival after 7 days from administration [15]: 5; Percent survival ([16]; 0.03% in diet (PA 2.5, AT-1493 2.5, AT-1557 2.2 mg/kg)): 100%; Number of surviving fish after 1 day [16, 20]: 5; Number of surviving fish after 2 days [16, 20]: 5; Number of surviving fish after 3 days [16, 20]: 5; Number of surviving fish after 4 days [16, 20]: 5; Number of surviving fish after 5 days [16, 20]: 5; Percent survival [16, 17]: 100%; Number of surviving fish after 1 day [16, 18]: 5; Number of surviving fish after 2 days [16, 18]: 5; Number of surviving fish after 3 days [16, 18]: 5; Number of surviving fish after 4 days [16, 18]: 5; Number of surviving fish after 5 days [16, 18]: 5
